Target: T1, cystathionine γ-lyase (CSE) (Homo sapiens, UniProt P32929)
T1 construct: gene CTH
Assay: methylene blue H2S production assay with purified recombinant CSE, L-cysteine substrate
Type: biochemical

T1 sequence (P32929 whole entry): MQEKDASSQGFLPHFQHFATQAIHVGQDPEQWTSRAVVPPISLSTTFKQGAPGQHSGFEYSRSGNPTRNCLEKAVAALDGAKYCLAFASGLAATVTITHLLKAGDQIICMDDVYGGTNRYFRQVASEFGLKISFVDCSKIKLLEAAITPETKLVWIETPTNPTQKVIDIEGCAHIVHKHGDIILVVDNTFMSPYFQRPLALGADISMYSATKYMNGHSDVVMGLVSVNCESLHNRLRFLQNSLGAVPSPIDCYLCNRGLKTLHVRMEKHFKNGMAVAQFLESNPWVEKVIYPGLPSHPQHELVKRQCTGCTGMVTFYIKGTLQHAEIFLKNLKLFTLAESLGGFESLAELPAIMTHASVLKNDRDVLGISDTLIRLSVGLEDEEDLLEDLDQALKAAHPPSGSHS

Q: With `COc1ccc(-c2cc(C(F)F)n3ncc(C(=O)Nc4ccc(S(=O)(=O)Nc5ccccc5OC)cc4)c3n2)cc1` [I194496, 7-(difluoromethyl)-N-{4-[(2-methoxyanilino)sulfonyl]phenyl}-5-(4-methoxyphenyl)pyrazolo[1,5-a]pyrimidine-3-carboxamide] as the molecule, how does the IC50 read?
A: 790 µM

Reference: paper PMC8076300, “A novel cystathionine γ-lyase inhibitor, I194496, inhibits the growth and metastasis of human TNBC via downregulating multiple signaling pathways” (Scientific Reports, 2021)
